Test results published in ChEMBL document CHEMBL1201862, “PubChem BioAssay data set” (2004).
Active and inactive are the calls of the source.

Experiments:
[1] = target: Troponin, cardiac muscle (Homo sapiens, UniProt P19429+P45379+P63316); test: Fluorescence-based biochemical high throughput dose response assay for activators of the calcium sensitivity of cardiac Regulated Thin Filaments (RTF). [Related pubchem assays (depositor defined):AID493008, AID493018, AID504382, AID504383]; format: protein-complex assay
[2] = target: Intestinal-type alkaline phosphatase (Homo sapiens, UniProt P09923); test: human intestinal alkaline phosphatase activators, dose response, biochemical, luminescence, uHTS hits (AID 463120); format: functional
Chain of Intestinal-type alkaline phosphatase (P09923 whole entry): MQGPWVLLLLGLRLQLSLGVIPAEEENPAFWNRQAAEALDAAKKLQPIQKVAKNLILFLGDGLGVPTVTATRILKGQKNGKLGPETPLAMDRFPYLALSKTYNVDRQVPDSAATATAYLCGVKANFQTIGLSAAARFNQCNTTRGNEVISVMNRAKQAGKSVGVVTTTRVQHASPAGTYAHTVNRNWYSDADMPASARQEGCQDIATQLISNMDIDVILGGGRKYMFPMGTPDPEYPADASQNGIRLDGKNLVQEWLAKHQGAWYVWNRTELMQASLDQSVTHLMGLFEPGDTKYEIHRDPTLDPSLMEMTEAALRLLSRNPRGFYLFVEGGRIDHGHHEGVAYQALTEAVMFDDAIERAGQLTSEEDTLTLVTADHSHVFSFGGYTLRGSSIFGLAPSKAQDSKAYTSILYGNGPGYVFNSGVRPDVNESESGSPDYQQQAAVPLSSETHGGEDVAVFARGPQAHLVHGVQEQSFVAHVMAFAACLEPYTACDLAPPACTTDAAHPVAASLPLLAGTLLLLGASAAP

[3] = system: BJ; test: cells; format: functional, cell-based; details: Homo sapiens
[4] = cells; format: functional
[5] = Vero E6 cell cytotoxicity, dose response, cytotoxicity control for non-replicating M. tuberculosis project, secondary assay (AID 492998); format: functional, VeroE6; details: Vero C1008
[6] = system: BJ; test: BJ-TERT-LT-ST fibroblast viability loss – cell-based, RAS-independent, luminescence, dose response (AID 1935); format: functional; details: Homo sapiens;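 note: BJ fibroblasts immortalized with TERT plus LT and ST oncogenes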
[7] = THP-1 cell cytotoxicity, dose response, cytotoxicity control for non-replicating M. tuberculosis project (AID 489025); format: functional
[8] = DRD fibroblast viability loss – cell-based, non-viral oncogenic, luminescence, dose response (AID 1934); format: functional; details: Homo sapiens
[9] = system: BJ; test: BJ-TERT fibroblast viability loss – cell-based, RAS-independent, luminescence, dose response (AID 1933); format: functional; details: Homo sapiens
[10] = target: Ion channel NompC (Danio rerio, UniProt Q7T1G6); test: Dose response cell-based high-throughput screening assay for agonists of the transient receptor potential channel N1 (TRPN1). [Related pubchem assays (depositor defined):AID1424, AID1448]; format: functional
Chain of Ion channel NompC (Q7T1G6 whole entry): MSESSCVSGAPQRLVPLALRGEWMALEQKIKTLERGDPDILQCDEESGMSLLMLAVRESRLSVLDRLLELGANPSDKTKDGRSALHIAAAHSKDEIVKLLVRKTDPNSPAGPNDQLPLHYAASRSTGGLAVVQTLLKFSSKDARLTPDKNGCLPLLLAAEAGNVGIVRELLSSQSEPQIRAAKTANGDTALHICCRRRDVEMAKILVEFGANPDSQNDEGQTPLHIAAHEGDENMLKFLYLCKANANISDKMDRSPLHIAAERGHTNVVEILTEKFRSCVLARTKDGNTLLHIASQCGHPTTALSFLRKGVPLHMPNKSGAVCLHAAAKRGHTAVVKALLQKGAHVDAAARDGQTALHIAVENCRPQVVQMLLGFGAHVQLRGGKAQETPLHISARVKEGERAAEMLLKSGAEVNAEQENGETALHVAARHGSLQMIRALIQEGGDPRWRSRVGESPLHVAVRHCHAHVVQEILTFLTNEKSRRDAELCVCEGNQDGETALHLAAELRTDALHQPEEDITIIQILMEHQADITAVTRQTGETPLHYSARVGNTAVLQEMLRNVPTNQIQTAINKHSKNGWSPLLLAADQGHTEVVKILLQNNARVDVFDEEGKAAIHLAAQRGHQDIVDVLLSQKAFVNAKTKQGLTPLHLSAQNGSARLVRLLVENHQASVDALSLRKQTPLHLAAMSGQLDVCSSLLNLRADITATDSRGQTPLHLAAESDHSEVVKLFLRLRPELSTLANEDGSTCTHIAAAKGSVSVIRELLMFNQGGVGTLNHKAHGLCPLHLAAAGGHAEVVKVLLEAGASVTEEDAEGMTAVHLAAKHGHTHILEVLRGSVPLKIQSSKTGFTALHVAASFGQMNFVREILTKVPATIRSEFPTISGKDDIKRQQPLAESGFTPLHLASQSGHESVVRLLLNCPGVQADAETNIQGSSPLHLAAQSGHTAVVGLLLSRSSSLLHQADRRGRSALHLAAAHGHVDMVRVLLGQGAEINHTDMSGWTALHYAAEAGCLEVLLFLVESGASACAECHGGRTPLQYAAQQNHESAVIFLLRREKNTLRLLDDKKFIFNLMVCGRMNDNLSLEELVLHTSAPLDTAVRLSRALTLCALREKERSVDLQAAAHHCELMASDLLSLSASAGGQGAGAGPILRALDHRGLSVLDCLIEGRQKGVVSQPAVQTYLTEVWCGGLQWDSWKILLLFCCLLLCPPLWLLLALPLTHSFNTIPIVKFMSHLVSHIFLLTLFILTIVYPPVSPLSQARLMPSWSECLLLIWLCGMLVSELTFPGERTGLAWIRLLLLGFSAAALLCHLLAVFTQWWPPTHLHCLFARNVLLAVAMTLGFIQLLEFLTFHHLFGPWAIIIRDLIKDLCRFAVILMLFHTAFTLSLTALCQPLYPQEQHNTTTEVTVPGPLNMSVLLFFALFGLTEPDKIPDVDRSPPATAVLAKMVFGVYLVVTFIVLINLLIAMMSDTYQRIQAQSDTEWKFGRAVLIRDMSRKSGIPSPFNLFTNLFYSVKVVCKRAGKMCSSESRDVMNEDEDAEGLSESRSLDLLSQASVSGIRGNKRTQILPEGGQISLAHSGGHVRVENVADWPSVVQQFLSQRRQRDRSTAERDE

[11] = target: T1, Endoribonuclease toxin MazF (Escherichia coli K-12, UniProt P0AE70); test: substrate-only fluorescence increase artefacts – biochemical, single-stranded RNase substrate, counter-screen for MazEF activator project, dose response (AID 588502); format: functional
T1 sequence (P0AE70 whole entry): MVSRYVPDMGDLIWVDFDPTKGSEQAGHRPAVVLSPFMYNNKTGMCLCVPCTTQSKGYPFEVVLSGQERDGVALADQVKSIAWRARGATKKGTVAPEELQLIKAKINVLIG

[12] = target: Guanyl-specific ribonuclease T1 (Aspergillus oryzae (strain ATCC 42149 / RIB 40), UniProt P00651); test: inhibition of ribonuclease T1 activity – biochemical, fluorescence polarization, 1536-well, counter-screen for TPT1 inhibitor project, dose response (AID 2167)
Chain of Guanyl-specific ribonuclease T1 (P00651 whole entry): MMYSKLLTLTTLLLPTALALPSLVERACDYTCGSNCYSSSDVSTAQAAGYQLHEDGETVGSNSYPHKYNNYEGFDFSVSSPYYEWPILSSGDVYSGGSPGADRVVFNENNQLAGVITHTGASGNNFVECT

[13] = target: Mucolipin-3 (Homo sapiens, UniProt Q8TDD5); test: Fluorescence counterscreen assay for […] agonists: dose response cell-based high-throughput screening assay to identify agonists of the transient receptor potential channel ML3 (TRPML3). [Related pubchem assays: 1424, 1448 ]; format: functional
Chain of Mucolipin-3 (Q8TDD5 whole entry): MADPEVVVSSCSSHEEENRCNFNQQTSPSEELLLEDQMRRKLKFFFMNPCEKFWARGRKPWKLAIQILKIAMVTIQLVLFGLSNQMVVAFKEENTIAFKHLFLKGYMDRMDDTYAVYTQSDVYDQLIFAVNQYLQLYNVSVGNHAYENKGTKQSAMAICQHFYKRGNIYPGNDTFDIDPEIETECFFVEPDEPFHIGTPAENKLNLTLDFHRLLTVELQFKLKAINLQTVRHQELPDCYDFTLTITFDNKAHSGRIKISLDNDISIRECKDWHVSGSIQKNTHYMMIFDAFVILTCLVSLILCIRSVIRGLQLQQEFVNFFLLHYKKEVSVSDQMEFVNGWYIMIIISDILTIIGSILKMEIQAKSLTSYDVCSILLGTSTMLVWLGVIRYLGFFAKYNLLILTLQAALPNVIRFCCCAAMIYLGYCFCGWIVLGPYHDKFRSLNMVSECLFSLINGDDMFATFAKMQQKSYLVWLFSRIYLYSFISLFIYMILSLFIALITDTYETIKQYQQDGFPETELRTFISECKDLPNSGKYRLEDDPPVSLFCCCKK

[14] = target: Likely tRNA 2'-phosphotransferase (Candida albicans (strain SC5314 / ATCC MYA-2876) (Yeast), UniProt Q5A7N4); test: inhibition of Candida TPT1 enzyme activity – biochemical, fluorescence polarization, dose response (AID 2160)
Chain of Likely tRNA 2'-phosphotransferase (Q5A7N4 whole entry): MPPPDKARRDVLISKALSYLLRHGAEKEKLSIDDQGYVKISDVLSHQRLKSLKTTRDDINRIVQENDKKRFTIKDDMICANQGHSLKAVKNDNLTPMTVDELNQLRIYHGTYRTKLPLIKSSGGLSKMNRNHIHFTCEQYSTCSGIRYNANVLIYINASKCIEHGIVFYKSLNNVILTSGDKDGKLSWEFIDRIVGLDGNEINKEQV

[15] = target: T1, Endoribonuclease toxin MazF; test: activation of MazEF endoribonuclease cleavage – biochemical, fluorescence, single-stranded RNA substrate, uHTS hits, dose response (AID 588481); format: functional

Q: For `Cc1ccc(-c2ccc(OC(=O)c3ccc(=O)[nH]c3)c(C)c2)cc1`, which EC50 [1] is on record?
A: > 71.5 µM (inactive)

Q: With `O=C(N/N=C/c1ccc2cccnc2c1)c1nc(O)c2ccccc2n1` as the compound, how does the EC50 [2] read?
A: 7.78 µM (active)

Q: Which results are given for `COC(=O)c1ccc(C(=O)NC2CCCc3c2cnn3-c2cc(F)cc(F)c2)nc1` (stereo not given)?
A: EC50 [3]: 24.6 µM (active); IC50 [4]: 2.22 µM (active); CC50 [5]: 10.8 µM (active); EC50 [6]: 17.3 µM (active); CC50 [7]: 10.7 µM (active); EC50 [8]: 40 µM (active); EC50 [9]: 17.1 µM (active)

Q: For `CC(=O)N1C(=O)C(=C2C=C(C)OC(C)=C2)c2ccccc21`, which EC50 [10] is on record?
A: 22 µM (inactive)

Q: What about the EC50 [11] of the same compound?
A: > 99 µM (inactive)

Q: What about the IC50 [12] of the same compound?
A: 2.13 µM (active)

Q: And the EC50 [13]?
A: > 29.9 µM (not active)

Q: What about the IC50 [14] of the same compound?
A: > 2.06 µM (active)

Q: And the EC50 [15]?
A: > 99 µM (inactive)
